Each block holds one compound with its values, some of them ahead of it.
Tests used:
[1] = tested on: Candida albicans; assay: Synergistic antifungal activity against Candida albicans ATCC 64124 assessed as compound MIC measured after 48 hrs in presence of fluconazole by checkboard based microplate reader analysis; format: functional
[2] = tested on: Candida albicans; assay: Antifungal activity against Candida albicans ATCC 90819 measured after 48 hrs by broth microdilution analysis; format: functional
[3] = tested on: Candida albicans; assay: Partial synergistic antifungal activity against Candida albicans ATCC 64124 assessed as fractional inhibitory concentration index measured for 72 hrs in presence of voriconazole; format: functional
[4] = tested on: Candida albicans; assay: Partial synergistic antifungal activity against Candida albicans ATCC 10231 assessed as fractional inhibitory concentration index measured for 72 hrs in presence of ketoconazole; format: functional
[5] = tested on: Candida albicans; assay: Additive antifungal activity against Candida albicans ATCC MYA-1237 assessed as fractional inhibitory concentration index measured for 72 hrs in presence of posaconazole; format: functional
[6] = tested on: Candida albicans; assay: Antifungal activity against Candida albicans ATCC 64124 measured after 48 hrs by broth microdilution analysis; format: functional
[7] = tested on: Aspergillus terreus; assay: Antifungal activity against Aspergillus terreus ATCC MYA-3633 measured after 48 hrs by broth microdilution analysis; format: functional
[8] = tested on: Candida albicans; assay: Antifungal activity against Candida albicans ATCC MYA-2310 measured after 48 hrs by broth microdilution analysis; format: functional
[9] = tested on: Candida albicans; assay: Additive antifungal activity against Candida albicans ATCC 64124 assessed as fractional inhibitory concentration index measured for 72 hrs in presence of fluconazole; format: functional
[10] = tested on: Candida albicans; assay: Additive antifungal activity against Candida albicans ATCC 10231 assessed as fractional inhibitory concentration index measured for 72 hrs in presence of fluconazole; format: functional
[11] = tested on: Candida albicans; assay: Antifungal activity against Candida albicans ATCC MYA-1237 measured after 48 hrs by broth microdilution analysis; format: functional
[12] = tested on: Aspergillus terreus; assay: Additive antifungal activity against Aspergillus terreus ATCC MYA-3633 assessed as fractional inhibitory concentration index measured for 72 hrs in presence of voriconazole; format: functional
[13] = tested on: Candida albicans; assay: Partial synergistic antifungal activity against Candida albicans ATCC MYA-1003 assessed as fractional inhibitory concentration index measured for 72 hrs in presence of voriconazole; format: functional
[14] = tested on: Candida albicans; assay: Additive antifungal activity against Candida albicans ATCC MYA-1237 assessed as fractional inhibitory concentration index measured for 72 hrs in presence of voriconazole; format: functional
[15] = tested on: Candida albicans; assay: Partial synergistic antifungal activity against Candida albicans ATCC 10231 assessed as fractional inhibitory concentration index measured for 72 hrs in presence of voriconazole; format: functional
[16] = tested on: Candida albicans; assay: Synergistic antifungal activity against Candida albicans ATCC 10231 assessed as compound MIC measured after 48 hrs in presence of posaconazole by checkboard based microplate reader analysis; format: functional
[17] = tested on: Candida albicans; assay: Synergistic antifungal activity against Candida albicans ATCC 64124 assessed as fractional inhibitory concentration index measured for 72 hrs in presence of posaconazole; format: functional
[18] = tested on: Candida albicans; assay: Antifungal activity against Candida albicans ATCC MYA-2876 measured after 48 hrs by broth microdilution analysis; format: functional
[19] = tested on: Candida albicans; assay: Synergistic antifungal activity against Candida albicans ATCC 90819 assessed as fractional inhibitory concentration index measured for 72 hrs in presence of voriconazole; format: functional
[20] = tested on: Candida albicans; assay: Antifungal activity against Candida albicans ATCC MYA-1003 measured after 48 hrs by broth microdilution analysis; format: functional
[21] = tested on: Candida albicans; assay: Synergistic antifungal activity against Candida albicans ATCC 64124 assessed as compound MIC measured after 48 hrs in presence of voriconazole by checkboard based microplate reader analysis; format: functional
[22] = tested on: Aspergillus terreus; assay: Additive antifungal activity against Aspergillus terreus ATCC MYA-3633 assessed as fractional inhibitory concentration index measured for 72 hrs in presence of posaconazole; format: functional
[23] = tested on: Candida albicans; assay: Partial synergistic antifungal activity against Candida albicans MYA-2876 assessed as fractional inhibitory concentration index measured for 72 hrs in presence of posaconazole; format: functional
[24] = tested on: Candida albicans; assay: Partial synergistic antifungal activity against Candida albicans ATCC 64124 assessed as fractional inhibitory concentration index measured for 72 hrs in presence of ketoconazole; format: functional
[25] = tested on: Candida albicans; assay: Partial synergistic antifungal activity against Candida albicans ATCC 90819 assessed as fractional inhibitory concentration index measured for 72 hrs in presence of posaconazole; format: functional
[26] = tested on: Nakaseomyces glabratus; assay: Antifungal activity against Candida glabrata ATCC 2001 measured after 48 hrs by broth microdilution analysis; format: functional
[27] = tested on: Candida albicans; assay: Synergistic antifungal activity against Candida albicans ATCC 64124 assessed as compound MIC measured after 48 hrs in presence of ketoconazole by checkboard based microplate reader analysis; format: functional
[28] = tested on: Candida albicans; assay: Additive antifungal activity against Candida albicans ATCC 64124 assessed as fractional inhibitory concentration index measured for 72 hrs in presence of itraconazole; format: functional
[29] = tested on: Candida albicans; assay: Synergistic antifungal activity against Candida albicans ATCC 10231 assessed as compound MIC measured after 48 hrs in presence of voriconazole by checkboard based microplate reader analysis; format: functional
[30] = tested on: Nakaseomyces glabratus; assay: Additive antifungal activity against Candida glabrata ATCC 2001 assessed as fractional inhibitory concentration index measured for 72 hrs in presence of posaconazole; format: functional
[31] = tested on: Candida albicans; assay: Antifungal activity against Candida albicans ATCC 10231 measured after 48 hrs by broth microdilution analysis; format: functional
[32] = tested on: Candida albicans; assay: Synergistic antifungal activity against Candida albicans ATCC 10231 assessed as compound MIC measured after 48 hrs in presence of itraconazole by checkboard based microplate reader analysis; format: functional
[33] = tested on: Candida albicans; assay: Partial synergistic antifungal activity against Candida albicans ATCC MYA-1003 assessed as fractional inhibitory concentration index measured for 72 hrs in presence of posaconazole; format: functional
[34] = tested on: Candida albicans; assay: Synergistic antifungal activity against Candida albicans ATCC 64124 assessed as compound MIC measured after 48 hrs in presence of itraconazole by checkboard based microplate reader analysis; format: functional
[35] = tested on: Candida albicans; assay: Additive antifungal activity against Candida albicans MYA-1003 assessed as fractional inhibitory concentration index measured for 72 hrs in presence of voriconazole
[36] = tested on: Candida albicans; assay: Synergistic antifungal activity against Candida albicans ATCC 10231 assessed as compound MIC measured after 48 hrs in presence of ketoconazole by checkboard based microplate reader analysis; format: functional
[37] = tested on: Candida albicans; assay: Synergistic antifungal activity against Candida albicans ATCC 64124 assessed as compound MIC measured after 48 hrs in presence of posaconazole by checkboard based microplate reader analysis; format: functional
[38] = tested on: Candida albicans; assay: Additive antifungal activity against Candida albicans ATCC 10231 assessed as fractional inhibitory concentration index measured for 72 hrs in presence of itraconazole; format: functional
[39] = tested on: Candida albicans; assay: Synergistic antifungal activity against Candida albicans ATCC 10231 assessed as compound MIC measured after 48 hrs in presence of fluconazole by checkboard based microplate reader analysis; format: functional
[40] = tested on: Candida albicans; assay: Additive antifungal activity against Candida albicans ATCC MYA-2310 assessed as fractional inhibitory concentration index measured for 72 hrs in presence of voriconazole; format: functional
[41] = tested on: Nakaseomyces glabratus; assay: Additive antifungal activity against Candida glabrata ATCC 2001 assessed as fractional inhibitory concentration index measured for 72 hrs in presence of voriconazole; format: functional
[42] = tested on: Candida albicans; assay: Additive antifungal activity against Candida albicans ATCC MYA-2876 assessed as fractional inhibitory concentration index measured for 72 hrs in presence of voriconazole; format: functional
[43] = tested on: Candida albicans; assay: Partial synergistic antifungal activity against Candida albicans ATCC 10231 assessed as fractional inhibitory concentration index measured for 72 hrs in presence of posaconazole; format: functional
[44] = tested on: Candida albicans; assay: Additive antifungal activity against Candida albicans ATCC MYA-2876 assessed as fractional inhibitory concentration index measured for 72 hrs in presence of posaconazole; format: functional
[45] = tested on: Candida albicans; assay: Additive antifungal activity against Candida albicans ATCC 90819 assessed as fractional inhibitory concentration index measured for 72 hrs in presence of voriconazole; format: functional
[46] = tested on: Candida albicans; assay: Additive antifungal activity against Candida albicans MYA-1003 assessed as fractional inhibitory concentration index measured for 72 hrs in presence of posaconazole
[47] = tested on: Candida albicans; assay: Additive antifungal activity against Candida albicans ATCC 64124 assessed as fractional inhibitory concentration index measured for 72 hrs in presence of ketoconazole; format: functional
[48] = tested on: Candida albicans; assay: Additive antifungal activity against Candida albicans ATCC 90819 assessed as fractional inhibitory concentration index measured for 72 hrs in presence of posaconazole; format: functional
[49] = tested on: Candida albicans; assay: Additive antifungal activity against Candida albicans ATCC MYA-2310 assessed as fractional inhibitory concentration index measured for 72 hrs in presence of posaconazole; format: functional

MIC [1]: > 32 µg/mL
MIC [2]: > 32 µg/mL
MIC [6]: > 32 µg/mL
MIC [7]: > 32 µg/mL
MIC [8]: > 32 µg/mL
MIC [11]: > 32 µg/mL
MIC [16]: 4 µg/mL
MIC [18]: > 32 µg/mL
MIC [20]: > 32 µg/mL
MIC [21]: 16 µg/mL
MIC [26]: > 32 µg/mL
MIC [27]: 0.5 µg/mL
MIC [29]: 16 µg/mL
MIC [31]: > 32 µg/mL
MIC [32]: > 32 µg/mL
MIC [34]: > 32 µg/mL
MIC [36]: 16 µg/mL
MIC [37]: 4 µg/mL
MIC [39]: 16 µg/mL
SMILES: O=C(CCCN1CCC(O)(c2ccc(Br)cc2)CC1)c1ccc(Cl)cc1
fractional inhibitory concentration index (FICI) [3]: 0.63
fractional inhibitory concentration index (FICI) [4]: 0.75
fractional inhibitory concentration index (FICI) [5]: 1.02
fractional inhibitory concentration index (FICI) [9]: 2
fractional inhibitory concentration index (FICI) [10]: 1.5
fractional inhibitory concentration index (FICI) [12]: 2
fractional inhibitory concentration index (FICI) [13]: 0.75
fractional inhibitory concentration index (FICI) [14]: 1
fractional inhibitory concentration index (FICI) [15]: 0.75
fractional inhibitory concentration index (FICI) [17]: 0.19
fractional inhibitory concentration index (FICI) [19]: 0.31
fractional inhibitory concentration index (FICI) [22]: 2
fractional inhibitory concentration index (FICI) [23]: 0.52
fractional inhibitory concentration index (FICI) [24]: 0.52
fractional inhibitory concentration index (FICI) [25]: 0.52
fractional inhibitory concentration index (FICI) [28]: 2
fractional inhibitory concentration index (FICI) [30]: 2
fractional inhibitory concentration index (FICI) [33]: 0.53
fractional inhibitory concentration index (FICI) [35]: 0.75
fractional inhibitory concentration index (FICI) [38]: 2
fractional inhibitory concentration index (FICI) [40]: 1
fractional inhibitory concentration index (FICI) [41]: 2
fractional inhibitory concentration index (FICI) [42]: 1

MIC [1]: > 64 µg/mL
MIC [2]: > 64 µg/mL
MIC [6]: > 64 µg/mL
MIC [7]: > 64 µg/mL
MIC [8]: > 64 µg/mL
MIC [11]: > 64 µg/mL
MIC [16]: 16 µg/mL
MIC [18]: > 64 µg/mL
MIC [20]: > 64 µg/mL
MIC [21]: 32 µg/mL
MIC [26]: > 64 µg/mL
MIC [27]: 32 µg/mL
MIC [29]: 8 µg/mL
MIC [31]: > 64 µg/mL
MIC [32]: 64 µg/mL
MIC [34]: > 64 µg/mL
MIC [36]: > 64 µg/mL
MIC [37]: 8 µg/mL
MIC [39]: 64 µg/mL
SMILES: O=C(CCCN1CCC(O)(c2ccc(Br)cc2)CC1)c1ccccc1
fractional inhibitory concentration index (FICI) [3]: 0.75
fractional inhibitory concentration index (FICI) [43]: 0.75
fractional inhibitory concentration index (FICI) [9]: 2
fractional inhibitory concentration index (FICI) [10]: 2
fractional inhibitory concentration index (FICI) [12]: 2
fractional inhibitory concentration index (FICI) [15]: 0.63
fractional inhibitory concentration index (FICI) [17]: 0.19
fractional inhibitory concentration index (FICI) [44]: 2
fractional inhibitory concentration index (FICI) [45]: 1
fractional inhibitory concentration index (FICI) [46]: 1.03
fractional inhibitory concentration index (FICI) [22]: 1.25
fractional inhibitory concentration index (FICI) [47]: 1
fractional inhibitory concentration index (FICI) [48]: 1
fractional inhibitory concentration index (FICI) [28]: 2
fractional inhibitory concentration index (FICI) [49]: 1.01
fractional inhibitory concentration index (FICI) [30]: 0.56
fractional inhibitory concentration index (FICI) [35]: 1.06
fractional inhibitory concentration index (FICI) [38]: 1.5
fractional inhibitory concentration index (FICI) [40]: 2
fractional inhibitory concentration index (FICI) [41]: 1.01
fractional inhibitory concentration index (FICI) [42]: 2

Source: ChEMBL document CHEMBL5252541, “Repurposing antipsychotic drugs into antifungal agents: Synergistic combinations of azoles and bromperidol derivatives in the treatment of various fungal infections” (Eur J Med Chem, 2017)
